Read-outs that look alike come from different tables or passages of the source. Marks after values point to notes of the source that are not given here.
Columns and labels:
[1] = In vivo PET imaging in mice (brain uptake); conditions: mouse, i.v. injection, one exemplary animal
Protocol: PET imaging was performed on a dedicated small animal Inveon PET scanner (Siemens Healthcare, Knoxville (TN), USA). Mice and rats were anesthetized with 1.5–1.7% isoflurane evaporated in 100% oxygen at a flow rate of 0.8 L/min, which was maintained during the entire experiment. After a tail vein catheter was placed, the animal was positioned in the center of the field of view (FOV) on an MR-compatible PET bed that was connected to a feedback temperature control unit set to 37 °C. Mice were injected intravenously (i.v.) with 17 ± 2 MBq [^11C]MODAG-001 (n = 3) or 12 ± 1 MBq (d3)-[^11C]MODAG-001 (n = 5) 5 s after the start of the PET acquisition. […]
Whole body mouse PET scans were coregistered to the whole body MR scan, which was sequentially acquired after the PET scan, and the volumes of interest (VOIs) of the lung, liver, heart, brain, and kidneys were drawn by hand based on the MR anatomical information using PMOD software (version 3.2; PMOD Technologies, Zürich, Switzerland). VOIs of different brain regions were extracted using the mouse or rat brain atlas provided by PMOD [10-12], and tissue time activity curves (TACs) were calculated and are expressed as standardized uptake values (SUVs), which were calculated as follows: SUV(t) = radioactivity concentration (kBq/mL of the organ)/(injected dose [kBq]/body weight [g]). […]

[2] = Radio-metabolite analysis in mouse plasma and brain by radio-HPLC; assay type: in vivo; conditions: for M3 % / M3 %ID: metabolite 3; for M2* % / M2* %ID: mixture of various metabolites
Protocol: For metabolite analysis, mice were i.v. injected with 91 ± 24 MBq of [^11C]MODAG-001 (n = 4 per time point) or 120 ± 41 MBq of (d3)-[^11C]MODAG-001 (n = 3 per time point) using a tail vein catheter. Five and 15 min after injection, plasma and brain homogenates were analyzed using radio-HPLC (for detailed information see supplemental material and methods section).
A 400 µL blood sample was collected by heart puncture five or 15 minutes after tracer injection. The blood was centrifuged at 17,000 x g and 4 °C for two minutes, and the plasma was transferred to a 1.5 mL reaction tube on ice for further analysis. After blood collection, mice were transcardially perfused (10 mL/min) with 20 mL of ice-cold PBS, and the brain of each mouse was removed from the skull. The brain was transferred to a glass tube (2 mL Dounce tissue grinder set, Sigma Aldrich Chemie GmbH) containing 0.5 mL of ice-cold PBS, sequentially homogenized using large and small clearance pestles and transferred to a 1.5 mL reaction tube on ice for further analysis. Plasma or brain homogenate was mixed 1:1 with acetonitrile and briefly centrifuged. After two minutes of incubation on ice, each mixture was centrifuged at room temperature for 1.5 minutes at 12,000 x g (MiniSpin®, Eppendorf AG) to remove precipitated proteins. The supernatant was subjected to reversed-phase HPLC on a Luna Phenyl Hexyl column (5 µm, 100 Å, 300 mm x 4.6 mm, Phenomenex) equipped with a radioactivity detector with 0.1 % trifluoroacetic acid in water/acetonitrile (70:30) at an isocratic flow rate of 1.5 mL/min.
For data analysis, the median of ten consecutive data points was calculated to remove noise; data were corrected for radioactive decay to time zero, defined as start of the HPLC of the five minute brain sample. This time zero radioactivity was plotted against time using Origin software (OriginLab Corporation, version 9.1G, Northampton, MA, USA). The area under the curve was calculated in % using the peak analyzer function and scaled up that the peaks add up to 100 %. The area under the curve was transformed into radioactivity values using a standard of [^11C]MODAG-001 with known radioactivity also corrected for decay and expressed as % injected radioactivity dose (%ID) per gram of brain tissue or per plasma in one mL of blood.

[3] = molecular target: T1, αSYN fibrils inoculated into the right striatum (Homo sapiens, UniProt P37840); assay: In vivo PET imaging in αSYN fibril-inoculated rats; parameters: species or system rat; conditions: for mean distribution volume ratio (DVR)-1 40-60min (binding potential): 4 days post inoculation
T1 construct: made in house; host or cells: E. coli BL21(DE3)pLys
Protocol: Rats were inoculated with αSYN fibrils (4 μL, 30 μM) into the right striatum (see supplementary material and methods section for a detailed description) and scanned 4 days post-inoculation with 23 ± 1 MBq of (d3)-[^11C]MODAG-001.
Data acquisition, correction, framing and reconstruction, volume of interest (VOI) definition, and determination of binding parameters are described in detail in the supplementary material and methods section.
Rats were allowed to adapt for two weeks in the animal facility before fibril injection. Three adult female rats were anaesthetized with an intraperitoneal (i.p.) injection of a mixture of fentanyl (0.005 mg/kg), midazolam (2 mg/kg), and medetomidine (0.15 mg/kg) at 1 mL/kg. The head of each rat was shaved, and the animal was placed into a stereotaxic frame. A central incision was made to expose the bregma and lambda. A 5 µL syringe needle (Hamilton Company, Reno (NV), USA) was enclosed with a glass capillary (inner diameter, 50 µm, Hilgenberg GmbH, Malsfeld, Germany). αSYN fibrils (4 µL, 30 µM) were injected using a stereotaxic injector (Stoelting, Wood Lane, IL, USA) through a drill hole into the right striatum (ML= -3.2 mm, AP = 0.0 mm, DV = -4.8 mm) according to the stereotaxic atlas of Paxinos and Watson [9][. Based on the volume of the right striatum (0.04 cm^3), the concentration of inoculated fibrils was calculated as 2.8 µM. As a negative control, 4 µL of vehicle (50 mM Tris base, 100 mM sodium chloride, 0.02 % sodium azide, pH 7.0) were injected into the contralateral striatum. A total fibril volume of 4 µL was obtained by the injection of 0.4 µL every 60 seconds. To allow for diffusion of the fibrils into the tissue, the needle was left in this position for five minutes. […]
Whole body mouse PET scans were coregistered to the whole body MR scan, which was sequentially acquired after the PET scan, and the volumes of interest (VOIs) of the lung, liver, heart, brain, and kidneys were drawn by hand based on the MR anatomical information using PMOD software (version 3.2; PMOD Technologies, Zürich, Switzerland). VOIs of different brain regions were extracted using the mouse or rat brain atlas provided by PMOD [10-12], and tissue time activity curves (TACs) were calculated and are expressed as standardized uptake values (SUVs), which were calculated as follows: SUV(t) = radioactivity concentration (kBq/mL of the organ)/(injected dose [kBq]/body weight [g]). […] Distribution volume ratio 1 (DVR-1) values were calculated from individual TACs from 40 to 60 minutes, using the vehicle-injected striatum as a reference region, with the following formula: activity in fibril inoculated right striatum/activity in vehicle injected left striatum) - 1. […]

αSYN and Aβ1–42 fibrils = tested on: αSYN and Aβ1–42 fibrils; parameters: method as in PMID 29989823; conditions: similar rat model, despite good cerebral uptake and high Am ref 30; cited from earlier work
recombinant αSYN fibrils = conditions: cited from earlier work
[4] = mouse brain, 5 min after injection
[5] = mouse brain, 5 min after injection, parent compound
[6] = mouse brain, 15 min after injection, metabolite 1
[7] = mouse brain, 15 min after injection
[8] = mouse brain, 15 min after injection, parent compound
[9] = mouse plasma, 5 min after injection, metabolite 1
[10] = mouse plasma, 5 min after injection
[11] = mouse plasma, 5 min after injection, parent compound
[12] = mouse plasma, 15 min after injection, metabolite 1
[13] = mouse plasma, 15 min after injection
[14] = mouse plasma, 15 min after injection, parent compound

Q: Which results are given for [2H]C([2H])([2H])N([11CH3])c1ccc(-c2cc(-c3ccnc(Br)c3)[nH]n2)cc1 [(d3)-[^11C]MODAG-001]?
A: peak standardized uptake value (SUV) in brain [1]: 1.7; M1 %ID ([2]; mouse brain, 5 min after injection, metabolite 1): 0.4* %ID per g brain tissue; M1 % ([2]; mouse brain, 5 min after injection, metabolite 1, % of radioactivity): 5%; M3 % [2, 4]: 2%; M3 %ID [2, 4]: 0.2* %ID per g brain tissue; P % [2, 5]: 93%; P %ID [2, 5]: 8.8 %ID per g brain tissue; M1 % [2, 6]: 5%; M1 %ID [2, 6]: 0.4* %ID per g brain tissue; M3 % [2, 7]: 8%; M3 %ID [2, 7]: 0.7* %ID per g brain tissue; P % [2, 8]: 87%; P %ID [2, 8]: 7.2 %ID per g brain tissue; M1 % [2, 9]: 21%; M1 %ID [2, 9]: 0.6^# %ID per plasma in 1 mL blood; M3 % [2, 10]: 6%; M3 %ID [2, 10]: 0.1^# %ID per plasma in 1 mL blood; M2* % [2, 10]: 34%; M2* %ID [2, 10]: 0.9^# %ID per plasma in 1 mL blood; P % [2, 11]: 39%; P %ID [2, 11]: 1.0^# %ID per plasma in 1 mL blood; M1 % [2, 12]: 30%; M1 %ID [2, 12]: 0.8^# %ID per plasma in 1 mL blood; M3 % [2, 13]: 4%; M3 %ID [2, 13]: 0.1^# %ID per plasma in 1 mL blood; M2* % [2, 13]: 36%; M2* %ID [2, 13]: 1.0^# %ID per plasma in 1 mL blood; P % [2, 14]: 30%; P %ID [2, 14]: 0.8^# %ID per plasma in 1 mL blood; mean distribution volume ratio (DVR)-1 40-60min (binding potential) ([3]; 70% automatic isocontour VOI, contralateral side as reference): 0.44 ± 0.21; peak SUV ([3]; left striatum of fibril-inoculated rats): 2.1 ± 0.1; peak SUV ([3]; non-injected control rat): 2.1; mean distribution volume ratio (DVR)-1 40-60min (binding potential) ([3]; whole striatum VOI, contralateral vehicle-injected striatum as reference): 0.14 ± 0.1

Q: Which “peak standardized uptake value (SUV) in brain” value [1] does the source give for CN([11CH3])c1ccc(-c2cc(-c3ccnc(Br)c3)[nH]n2)cc1 [[^11C]MODAG-001] here?
A: The value was 1.4.

Q: What about the tissue uptake at 5 min ([2]; intravenous, mouse brain, 5 min after injection, parent compound, read-out: P %ID) of the same compound?
A: Its tissue uptake at 5 min is 10.5 %ID/g.

Q: And the tissue uptake at 15 min ([2]; intravenous, mouse brain, 15 min after injection, parent compound, read-out: P %ID)?
A: The tissue uptake at 15 min was 5.3 %ID/g.

Q: What about the P % [2, 5] of the same compound?
A: Its P % is 91%.

Q: And the “P %ID” value [2, 5]?
A: Its value is 10.5* %ID per g brain tissue.

Q: What about the P % [2, 8] of the same compound?
A: The P % was 81%.

Q: And the “P %ID” value [2, 8]?
A: Its value is 5.3* %ID per g brain tissue.

Q: What about the P % [2, 11] of the same compound?
A: The P % was 26%.

Q: And the “P %ID” value [2, 11]?
A: The value was 0.8^# %ID per plasma in 1 mL blood.

Q: What about the P % [2, 14] of the same compound?
A: The P % was 24%.

Q: What about the “P %ID” value [2, 14] of the same compound?
A: Its value is 0.7^# %ID per plasma in 1 mL blood.

Q: Which binding in vivo (αSYN and Aβ1–42 fibrils) does the source give for CN(c1ccc(/C=C/c2nc3ccccc3o2)cc1)S(=O)(=O)c1ccccc1[18F] [[^18F]2FBox] here?
A: Its binding in vivo is “no binding was observed in vivo”.

Q: With CN(C)c1ncc(C=Cc2nc3ccc(OCCF)cc3o2)s1 [[^18F]BF-227] as the compound, how does the Kd (recombinant αSYN fibrils; recombinant αSYN fibrils ref 26) read?
A: Its Kd is 9.6 nM.

Q: And the binding in vivo (αSYN and Aβ1–42 fibrils)?
A: The binding in vivo was “no binding was observed in vivo”.

Q: Which Kd (recombinant αSYN fibrils; recombinant αSYN fibrils ref 24) does the source give for O=[N+]([O-])c1ccc2c(c1)Sc1cc(OC/C=C/I)ccc1N2 [[^125I]SIL23] here?
A: The Kd was 148 nM.

— article PMC8113290, “[^11C]MODAG-001—towards a PET tracer targeting α-synuclein aggregates” (European Journal of Nuclear Medicine and Molecular Imaging, 2020)
